The values below come from US10100052B2, “Compounds for the treatment of hepatitis B virus infection” (Gilead Sciences, Inc., priority 2016, dated 2018).

The structures appear in SMILES notation.

The test system of data set [1] is HBsAg. The data set can be described thus: PHH assay for inhibition of HBsAg. To be noted: Hepatitis B virus, 288 h, read-out: HBsAg EC50. The class given is cell-based, genotype D (AD38-derived) HBV in primary human hepatocytes. On the procedure:
Primary human hepatocytes (PHH) (Bioreclamation IVT) were plated on collagen-coated flasks using Plating Media (Life Technologies) containing William's Medium E supplemented with 1% penicillin/streptomycin, 4 μg/mL human recombinant insulin, 2 mM GlutaMAX, 15 mM HEPES, 1 μM dexamethasone, 5% fetal bovine serum, and 0.2% Torpedo Antibiotic Mix (Bioreclamation IVT). After a 4-hour incubation at 37° C., cells were switched to Maintenance Media (Life Technologies) containing William's Medium E supplemented with 0.5% penicillin/streptomycin, 6.25 µg/mL human recombinant insulin, 6.25 μg/mL human transferrin, 6.25 ng/mL selenous acid, 1.25 mg/mL bovine serum albumin, 5.35 μg/mL linoleic acid, 2 mM GlutaMAX, 15 mM HEPES, 0.1 μM dexamethasone, 2% fetal bovine serum, 2% DMSO, and 0.2% Torpedo Antibiotic Mix (Bioreclamation IVT). On the next day, PHH were infected with 500 genome equivalent per cell of genotype D (AD38-derived) HBV in Maintenance Media supplemented with 4% PEG 8000 (Promega). After 24 hour incubation, cells were washed three times with William's Medium E and fed with fresh Maintenance Media. At 3 days after infection, infected PHH cells were seeded on 96-well plates pre-coated with collagen at a density of 65000 cells per well containing serially diluted solutions of certain compounds disclosed herein or DMSO (1% final concentration) in a final volume of 125 μl of Maintenance Media (Life Technologies) containing William's Medium E supplemented with 0.5% penicillin/streptomycin, 6.25 μg/mL human recombinant insulin, 6.25 μg/mL human transferrin, 6.25 ng/mL selenous acid, 1.25 mg/mL bovine serum albumin, 5.35 μg/mL linoleic acid, 2 mM GlutaMAX, 15 mM HEPES, 0.1 μM dexamethasone, 5% fetal bovine serum, 1 mM 1-amininobenzotriaole, and 0.2% Torpedo Antibiotic Mix (Bioreclamation IVT). Media with compounds was replenished every 2-3 days. After an incubation time of 12 days, secreted HBsAg in the supernatant were measured using a multiplex chemiluminescent (Mesoscale discovery, MSD) assay using capture and detection antibody pairs specific for HBsAg. Comparative Example 1 and Comparative Example 2 have the following structures and were prepared according to International Publication No. WO 2015/113990.

Data set [2] is described as follows: MT-4 cytotoxicity assay. The class given is cell-based. To be noted: human, five days incubation, Cell Titer Glo. On the procedure:
The MT-4 cell line (HTLV-1 transformed, human T lymphoblastoid cells) was obtained from the NIH AIDS Reagent program (Bethesda, Md.). MT-4 cells were maintained in RPMI-1640 supplemented with 10% fetal bovine serum (FBS, Hyclone, Logan, Utah). All cell culture media were also supplemented with 100 Units/mL penicillin, 100 μg/mL streptomycin (Gibco). For the MT-4 cytotoxicity assay, 0.4 μL of serially diluted solutions of certain compounds disclosed herein were added to 40 μL of cell maintenance media in 384-well black, solid bottom plate using a Biomek FX workstation (Beckman Coulter). Two thousand cells in 35 μL were added to each well using a Biotek uFlow Workstation (Biotek). Each assay plate contained 10 μM puromycin (final concentration) and 0.5% DMSO in RPMI-1640 as positive and negative controls, respectively. Assay plates were incubated for five days at 37° C. in an incubator set at 5% CO2 and 90% humidity. After five days, 22 μL of Cell Titer Glo reagent (Promega) was added to the assay plates with a Biotek uFlow Workstation. Plates were subsequently placed on a Perkin Elmer Envision Plate Reader for five minutes before the luminescence signal was read. CC50 values were calculated by non-linear regression using Pipeline Pilot software by applying a four parameter fit equation (Accelrys, San Diego, Calif.) and are reported in the following Table 2.
A general note: Cellular ATP, detected with luciferase, serves as a proxy for viable cell number.

The EC50 is the concentration that produces a half-maximal response. Usually CC50 stands for the concentration giving 50% cytotoxicity.

For `COCCCOc1cc2c(cc1Cl)-c1cc(=O)c(C(=O)O)cn1N(C)C2` [Example 1, 10-chloro-9-(3-methoxypropoxy)-6-methyl-2-oxo-6,7-dihydro-2H-pyrido[2,1-a]phthalazine-3-carboxylic acid], in data set [1], the EC50 was 363 nM. In data set [2], this compound showed a 50% cytotoxic concentration (CC50) at 5 days of 8900 nM.
As to `COCCCOc1cc2c(cc1Cl)-c1cc(=O)c(C(=O)O)cn1N(C(C)(C)COC)C2` [Example 8, 10-chloro-6-(1-methoxy-2-methylpropan-2-yl)-9-(3-methoxypropoxy)-2-oxo-6,7-dihydro-2H-pyrido[2,1-a]phthalazine-3-carboxylic acid], in data set [1], the concentration for a half-maximal effect (EC50) was 11 nM. The CC50 at 5 days in data set [2] (MT-4 cells) was greater than 10000 nM.
In the case of `COCCCOc1cc2c(cc1Cl)-c1cc(=O)c(C(=O)O)cn1N(C1(C(F)(F)F)CC1)C2` [Example 3, 10-chloro-9-(3-methoxypropoxy)-2-oxo-6-(1-(trifluoromethyl)cyclopropyl)-6,7-dihydro-2H-pyrido[2,1-a]phthalazine-3-carboxylic acid], the EC50 in data set [1] came to 3.1 nM. The CC50 at 5 days in data set [2] (MT-4 cells) was greater than 10000 nM.
In data set [2] (MT-4 cells), `COCCCOc1cc2c(cc1Cl)-c1cc(=O)c(C(=O)O)cn1N(C1(C)CC1)C2` [Example 6, 10-chloro-9-(3-methoxypropoxy)-6-(1-methylcyclopropyl)-2-oxo-6,7-dihydro-2H-pyrido[2,1-a]phthalazine-3-carboxylic acid] showed a cytotoxic concentration (CC50) at 5 days greater than 10000 nM.
`COCCCOc1cc2c(cc1OC)-c1cc(=O)c(C(=O)O)cn1N(C(C)(C)C(F)(F)F)C2` [Example 15, 10-methoxy-9-(3-methoxypropoxy)-2-oxo-6-(1,1,1-trifluoro-2-methylpropan-2-yl)-6,7-dihydro-2H-pyrido[2,1-a]phthalazine-3-carboxylic acid]: the concentration for a half-maximal effect (EC50) in data set [1] turned out to be 25.3 nM. In addition, the half-maximal cytotoxic concentration (CC50) at 5 days in data set [2] (MT-4 cells) is greater than 10000 nM.
Turning to `COCCCOc1cc2c(cc1Cl)-c1cc(=O)c(C(=O)O)cn1N(C1(C(F)(F)F)CCC1)C2` [Example 4, 10-chloro-9-(3-methoxypropoxy)-2-oxo-6-(1-(trifluoromethyl)cyclobutyl)-6,7-dihydro-2H-pyrido[2,1-a]phthalazine-3-carboxylic acid], the EC50 in data set [1] stood at 11.2 nM. In data set [2] (MT-4 cells), this compound registered a CC50 at 5 days of 8100 nM.
Consider `COCCCOc1cc2c(cc1OC)-c1cc(=O)c(C(=O)O)cn1N(C(C)(C)COC)C2` [Example 11, 10-methoxy-6-(1-methoxy-2-methylpropan-2-yl)-9-(3-methoxypropoxy)-2-oxo-6,7-dihydro-2H-pyrido[2,1-a]phthalazine-3-carboxylic acid], for which, in data set [2] (MT-4 cells), the CC50 at 5 days is greater than 10000 nM.
On to `CCC(C)(C)N1Cc2cc(OCCCOC)c(Cl)cc2-c2cc(=O)c(C(=O)O)cn21` [Example 17, 10-chloro-9-(3-methoxypropoxy)-2-oxo-6-(tert-pentyl)-6,7-dihydro-2H-pyrido[2,1-a]phthalazine-3-carboxylic acid], for which the concentration giving a half-maximal response (EC50) in data set [1] came to 29.5 nM. This compound returned a CC50 at 5 days in data set [2] (MT-4 cells) greater than 10000 nM.
In the case of `COCCCOc1cc2c(cc1Cl)-c1cc(=O)c(C(=O)O)cn1N(C(C)(C)C(F)(F)F)C2` [Example 9, 10-chloro-9-(3-methoxypropoxy)-2-oxo-6-(1,1,1-trifluoro-2-methylpropan-2-yl)-6,7-dihydro-2H-pyrido[2,1-a]phthalazine-3-carboxylic acid], the CC50 at 5 days in data set [2] (MT-4 cells) was greater than 10000 nM.
Consider `CC(C)(C)N1Cc2cc(OCCOCC(F)(F)F)c(Cl)cc2-c2cc(=O)c(C(=O)O)cn21` [Example 13, 6-(tert-butyl)-10-chloro-2-oxo-9-(2-(2,2,2-trifluoroethoxy)ethoxy)-6,7-dihydro-2H-pyrido[2,1-a]phthalazine-3-carboxylic acid], for which the half-maximal effective concentration (EC50) in data set [1] amounted to 58.8 nM. This compound also gave a 50% cytotoxic concentration (CC50) at 5 days in data set [2] (MT-4 cells) of 5200 nM.
For `COCCCOc1cc2c(cc1Cl)-c1cc(=O)c(C(=O)O)cn1N(CC(C)(C)C)C2` [Example 18, 10-chloro-9-(3-methoxypropoxy)-6-neopentyl-2-oxo-6,7-dihydro-2H-pyrido[2,1-a]phthalazine-3-carboxylic acid], in that order: 168 nM and greater than 10000 nM.
On to `COCCCOc1cc2c(cc1Cl)-c1cc(=O)c(C(=O)O)cn1N(C13CC(C1)C3)C2` [Example 5, 6-(bicyclo[1.1.1]pentan-1-yl)-10-chloro-9-(3-methoxypropoxy)-2-oxo-6,7-dihydro-2H-pyrido[2,1-a]phthalazine-3-carboxylic acid], for which the 50% effective concentration (EC50) in data set [1] came to 4 nM. Besides, in data set [2] (MT-4 cells), the cytotoxic concentration (CC50) at 5 days is greater than 10000 nM.
For `COCCCOc1cc2c(cc1OC)-c1cc(=O)c(C(=O)O)cn1N(C1(C(F)(F)F)CC1)C2` [Example 14, 10-methoxy-9-(3-methoxypropoxy)-2-oxo-6-(1-(trifluoromethyl)cyclopropyl)-6,7-dihydro-2H-pyrido[2,1-a]phthalazine-3-carboxylic acid], in that order: 8.7 nM and greater than 10000 nM.
For `COCCCOc1cc2c(cc1Cl)-c1cc(=O)c(C(=O)O)cn1N(C1(C)CCC1)C2` [Example 7, 10-chloro-9-(3-methoxypropoxy)-6-(1-methylcyclobutyl)-2-oxo-6,7-dihydro-2H-pyrido[2,1-a]phthalazine-3-carboxylic acid], in that order: 6.8 nM and greater than 10000 nM.
For `[2H]C([2H])([2H])OCCCOc1cc2c(cc1Cl)-c1cc(=O)c(C(=O)O)cn1N(C(C)(C)C)C2` [Example 12, 6-(tert-butyl)-10-chloro-9-(3-(methoxy-d3)propoxy)-2-oxo-6,7-dihydro-2H-pyrido[2,1-a]phthalazine-3-carboxylic acid], in that order: 7.7 nM and 9300 nM.
As for `COCCCOc1cc2c(cc1Cl)-c1cc(=O)c(C(=O)O)cn1N(C1(C)CC(F)(F)C1)C2` [Example 19, 10-chloro-6-(3,3-difluoro-1-methylcyclobutyl)-9-(3-methoxypropoxy)-2-oxo-6,7-dihydro-2H-pyrido[2,1-a]phthalazine-3-carboxylic acid], in data set [1], the EC50 was found to be 99.2 nM. This compound gave a 50% cytotoxic concentration (CC50) at 5 days in data set [2] (MT-4 cells) greater than 10000 nM.
For `COCCCOc1cc2c(cc1OC)-c1cc(=O)c(C(=O)O)cn1N(C(C)(C)C)C2` [Example 10, 6-(tert-butyl)-10-methoxy-9-(3-methoxypropoxy)-2-oxo-6,7-dihydro-2H-pyrido[2,1-a]phthalazine-3-carboxylic acid], in that order: 1.6 nM and greater than 10000 nM.
For `COCCCOc1cc2c(cc1Cl)-c1cc(=O)c(C(=O)O)cn1N(C(C)(C)CO)C2` [Example 16, 10-chloro-6-(1-hydroxy-2-methylpropan-2-yl)-9-(3-methoxypropoxy)-2-oxo-6,7-dihydro-2H-pyrido[2,1-a]phthalazine-3-carboxylic acid], in that order: 66.9 nM and greater than 10000 nM.
